Literature values as cited in patent US20240050950A1, “GRADIENT-BASED MICROFLUIDIC CIRCUIT, DEVICE, AND METHOD FOR PERFORMING AN ASSAY” (priority 2020, published 2024).
Like-named read-outs stand apart in the source and are kept apart here. Numbered stars: 1 amine (or outer) side, 2 acyl side, 3 side chain; on linkers, the order of the positions; unused ones are H or OH. Bridge positions count the residues as written; N and C are the ends. Square brackets hold non-standard residues; d marks the D form. Peptide text beside a SMILES is read from it. I, II: the chains in the order shown. Actinocin(9to1) = Cc1c2oc3c(C)ccc(C(=O)[*:1])c3nc-2c(C(=O)[*:2])c(N)c1=O; NMeV = CN[C@H](C(=O)O)C(C)C; Sar = CNCC(=O)O

Details: cited from earlier work
[1] = Table 1, antimicrobial agents/drugs
[2] = Table 3, antifungal drugs and other molecules

Row | Compound | Molar volume [1] [cm^3] | Molar volume [2] [cm^3] | Molar volume (Table 2, anticancer drugs) [cm^3]
1 | 4-Hydroxytamoxifen [4-Hydroxytamoxifen ((Z)-Afimoxifene)] | 354.6 ± 3.0 |  | 
2 | OC[C@H]1NC[C@@H](O)[C@@H](O)[C@@H]1O [1-Deoxymannojirimycin] | 112.0 ± 3.0 |  | 
3 | c1ccc2[nH]c(-c3cscn3)nc2c1 [2-(4-Thiazolyl)benzimidazole] |  | 143.0 ± 3.0 | 
4 | C=CCc1ccc(O)c(-c2cc(CC=C)ccc2O)c1 [5,5′-Diallyl-2,2′-biphenyldiol] |  | 240.4 ± 3.0 | 
5 | O=[N+]([O-])C1(Br)COCOC1 [5-Bromo-5-nitro-1,3-dioxane] |  | 115.3 ± 5.0 | 
6 | Cc1c2oc3c(C)c(N)cc(C(=O)N[C@@H]4C(=O)N[C@H](C(C)C)C(=O)N5CCC[C@H]5C(=O)N(C)CC(=O)N(C)[C@@H](C(C)C)C(=O)O[C@@H]4C)c3nc-2c(C(=O)N[C@@H]2C(=O)N[C@H](C(C)C)C(=O)N3CCC[C@H]3C(=O)N(C)CC(=O)N(C)[C@@H](C(C)C)C(=O)O[C@@H]2C)c(N)c1=O [7-Aminoactinomycin D (7-ADD), 7-Aminoactinomycin D] | 877.3 ± 7.0 |  | 
7 | CC(=O)OCC1=C(C(=O)O)N2C(=O)[C@@H](N)[C@H]2SC1 [7-Aminocephalosporanic acid (7-ACA), 7-Aminocephalosporanic acid] | 170.0 ± 5.0 |  | 
8 | CC1=C(C(=O)O)N2C(=O)[C@@H](N)[C@H]2SC1 [7-Aminodesacetoxycephalosporanic acid] | 134.0 ± 5.0 |  | 
9 | CC(=O)O[C@@]12CO[C@@H]1C[C@H](O)[C@@]1(C)C(=O)[C@H](O)C3=C(C)[C@@H](O)C[C@@](O)([C@@H](OC(=O)c4ccccc4)[C@H]21)C3(C)C [10-Deacetylbaccatin III] | 385.5 ± 5.0 |  | 
10 | C=CCNC1=C2C[C@@H](C)C[C@H](OC)[C@H](O)[C@@H](C)/C=C(\C)[C@H](OC(N)=O)[C@@H](OC)/C=C\C=C(/C)C(=O)NC(=CC1=O)C2=O [17-(Allylamino)-17-demethoxygeldanamycin] | 483.3 ± 5.0 |  | 
11 | CC1(C)S[C@@H]2[C@H](N)C(=O)N2[C@H]1C(=O)O [(+)-6-Aminopenicillanic acid (6-APA), (+)-6-Aminopenicillanic acid] | 142.0 ± 5.0 |  | 
12 | CC[C@@]1(O)C(=O)OCc2c1cc1n(c2=O)Cc2cc3ccccc3nc2-1 [(S)-(+)-Camptothecin (Camptothecin), (S)-(+)-Camptothecin] | 230.2 ± 5.0 |  | 
13 | CC(=O)O[C@H]1CC[C@@]2(C)C(=CC[C@@H]3[C@@H]2CC[C@]2(C)C(c4cccnc4)=CC[C@@H]32)C1 [Abiraterone acetate (Zytiga), Abiraterone acetate] |  |  | 343.0 ± 5.0
14 | Cc1c2oc3c(C)ccc(C(=O)N[C@@H]4C(=O)N[C@H](C(C)C)C(=O)N5CCC[C@H]5C(=O)N(C)CC(=O)N(C)[C@@H](C(C)C)C(=O)O[C@@H]4C)c3nc-2c(C(=O)N[C@@H]2C(=O)N[C@H](C(C)C)C(=O)N3CCC[C@H]3C(=O)N(C)CC(=O)N(C)[C@@H](C(C)C)C(=O)O[C@@H]2C)c(N)c1=O [Actinomycin D] (I: T[dV]P[Sar][NMeV] / II: T[dV]P[Sar][NMeV]; ester I:1-I:C, II:1-II:C; linker I:N-II:N via Actinocin(9to1)) | 880.6 ± 7.0 |  | 880.6 ± 7.0
15 | CCCCC[C@H](CC(=O)NO)C(=O)N[C@H](C(=O)N1CCC[C@H]1CO)C(C)C [Actinonin] | 338.1 ± 3.0 |  | 
16 | Nc1ncnc2c1ncn2[C@@H]1O[C@H](CO)[C@@H](O)[C@@H]1O [Adenine 9-β-D-arabinofuranoside] | 128.1 ± 7.0 |  | 
17 | CO[C@H]1C[C@@H]2CC[C@@H](C)[C@@](O)(O2)C(=O)C(=O)N2CCCC[C@H]2C(=O)O[C@H]([C@H](C)C[C@@H]2CC[C@@H](OCCO)[C@H](OC)C2)CC(=O)[C@H](C)/C=C(\C)[C@@H](O)[C@@H](OC)C(=O)[C@H](C)C[C@H](C)/C=C/C=C/C=C/1C [Afinitor (Everolimus), Everolimus] |  |  | 811.2 ± 5.0
